Experimental data published in article PMC6315005, “5F-Cumyl-PINACA in ‘e-liquids’ for electronic cigarettes: comprehensive characterization of a new type of synthetic cannabinoid in a trendy product including investigations on the in vitro and in vivo phase I metabolism of 5F-Cumyl-PINACA and its non-fluorinated analog Cumyl-PINACA” (Forensic Toxicology, 2018).
Read-outs that look alike come from different tables or passages of the source.

Tests used:
CB1 = target: T1, CB1 (Homo sapiens, UniProt P21554); assay: cAMP biosensor assay with CB1 as target (DiscoveRx); assay type: cell-based; details: for Curve top: agonist format, 20 µM forskolin; for Emax: read-out: Maximum response (compared to CP-55,940)
T1 construct: purchased DiscoveRx (Fremont, CA, USA)
T1 sequence (P21554 whole entry): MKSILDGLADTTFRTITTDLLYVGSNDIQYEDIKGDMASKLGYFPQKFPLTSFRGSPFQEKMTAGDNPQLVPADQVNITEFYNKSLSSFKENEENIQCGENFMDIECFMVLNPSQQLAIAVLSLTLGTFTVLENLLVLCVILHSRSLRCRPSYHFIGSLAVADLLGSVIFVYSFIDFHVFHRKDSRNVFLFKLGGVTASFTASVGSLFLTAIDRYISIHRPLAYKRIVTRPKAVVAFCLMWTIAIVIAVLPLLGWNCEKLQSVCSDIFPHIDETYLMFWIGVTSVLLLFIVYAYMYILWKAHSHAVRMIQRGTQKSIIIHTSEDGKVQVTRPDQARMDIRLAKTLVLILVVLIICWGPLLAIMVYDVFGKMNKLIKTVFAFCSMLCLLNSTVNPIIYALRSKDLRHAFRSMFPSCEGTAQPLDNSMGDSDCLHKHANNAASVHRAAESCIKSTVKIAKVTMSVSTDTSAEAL
Procedure: Each compound was tested in duplicates; to induce response, 20 µM forskolin was used.

CB2 receptors = tested on: CB2 receptors; parameters: method as in PMID 28792725; details: mouse AtT-20 neuroblastoma cells, membrane potential; cited from earlier work
CB1 receptors = tested on: CB1 receptors; parameters: method as in PMID 28792725; details: mouse AtT-20 neuroblastoma cells, membrane potential; cited from earlier work
[1] = Self-administration study, phase I metabolites of Cumyl-PINACA in urine (LC-MS/MS); assay type: in vivo, human; details: normalized to creatinine 100 mg/dL
[2] = as above; assay type: in vivo, human; details: for peak area in urine: normalized to creatinine 100 mg/dL
Procedure: (§1) The LC–MS/MS system used for the analysis of the urine and the pHLM assay samples consisted of a Nexera X2 UHPLC (Shimadzu) coupled to a QTRAP™ 5500 triple quadrupole linear ion trap instrument (SCIEX) equipped with the TurboIonSpray® probe. […] The total flow rate was 0.4 mL/min. The autosampler and the column oven temperatures were set to 10 and 40 °C, respectively.
(§2) The MRM ion transitions of the parent compounds were optimized carefully in positive ionization mode (see Supplementary Tables S1 and S2). Enhanced product ion (EPI) scan experiments were performed using hypothetical masses of anticipated phase I metabolites, and the obtained spectra were compared to the EPI spectrum of the respective parent compound. In order to detect unexpected metabolites not covered by the EPI scan approach, precursor ion scan experiments for the characteristic fragment ion at m/z 145 and for the m/z of its modified analogs 161 (monohydroxylation), 177 (dihydroxylation) and 179 (dihydrodiol) were conducted. The relative abundances of the characterized metabolites in the urine samples obtained during the self-administration study were compared using an MRM method comprising the most abundant ion transitions of each metabolite (see Supplementary Fig. S1 and Table S3).
To investigate the in vivo phase I metabolism of Cumyl-PINACA, one of the authors (75 kg person) ingested 0.6 mg Cumyl-PINACA orally. In addition to blank samples taken prior to ingestion, serum and urine samples were collected repeatedly over periods of 17 and 31 h after ingestion, respectively. All samples were stored at − 20 °C until analysis. In Germany, approval by an ethics committee is not required for scientific self-experiments.
(§3) In order to cleave conjugates, 0.5 mL of an urine sample was incubated at 45 °C for 1 h after addition of 0.5 mL phosphate buffer (pH 6) and 30 µL β-glucuronidase. In a next step, 1.5 mL acetonitrile and 0.5 mL ammonium formate ([…]) were added. After shaking and centrifugation, 1 mL of the acetonitrile phase was transferred into a glass vial and evaporated to dryness under a gentle nitrogen stream at 40 °C. The residue was reconstituted in 200 µL mobile phase A/B (50:50, v/v) directly before LC–MS/MS analysis. Blank urine samples were prepared serving as negative controls.

[3] = Authentic urine sample, phase I metabolites of 5F-Cumyl-PINACA (LC-MS/MS); assay type: in vivo, human; details: for Urine [Peak area]: 5F-Cumyl-PINACA consumption
Procedure: as §1, §2
The analysis of in vivo metabolism of 5F-Cumyl-PINACA in an authentic urine sample was conducted in accordance with the client’s inquest.
as §3

[4] = tested on: pooled human liver microsomes (pHLM); assay: Pooled human liver microsome assay (phase I metabolism); assay type: in vitro ADME; details: 60 min, 37 °C
Procedure: as §1, §2
To investigate the tentative phase I metabolism of Cumyl-PINACA and 5F-Cumyl-PINACA (extracted from e-liquids), in vitro experiments with pHLM were performed in triplicates. A 0.5-µL volume of a substrate solution ([…] in acetonitrile) was added to 49.5 µL of a reaction mixture consisting of 2.5 µL pHLM, 2.5 µL NADPH regenerating solution A, 0.5 µL NADPH regenerating solution B, 5.0 µL SOD, 10 µL 0.5 M phosphate buffer, and 29 µL deionized water. Incubation was performed for 60 min at 37 °C. The reaction was terminated by the addition of ice-cold acetonitrile, and the supernatant was analyzed after 1:10 dilution with mobile phase A/B (50:50, v/v). Blank pHLM samples were processed in the same way serving as negative controls.

CB2 receptor = tested on: CB2 receptor; parameters: method as in PMID 29367862; details: [35S]GTPγS binding; cited from earlier work
CB1 receptor = tested on: CB1 receptor; parameters: method as in PMID 29367862; details: [35S]GTPγS binding; cited from earlier work
[5] = 37.2 h after 0.6 mg Cumyl-PINACA oral
[6] = 6 h after 0.6 mg Cumyl-PINACA oral
[7] = 16 h after 0.6 mg Cumyl-PINACA oral
[8] = 20.3 h after 0.6 mg Cumyl-PINACA oral
[9] = 22.3 h after 0.6 mg Cumyl-PINACA oral
[10] = 26.3 h after 0.6 mg Cumyl-PINACA oral
[11] = 29.3 h after 0.6 mg Cumyl-PINACA oral
[12] = pHLM incubation of 5F-Cumyl-PINACA
[13] = pHLM incubation of Cumyl-PINACA

O=C(c1cccc2ccccc12)c1nn(CCCCCF)c2ccccc12 [THJ-2201]
EC50 (CB1): 1.68 nM
Curve top (CB1): 95.6
Emax (CB1; control ligand CP-55,940): 91.9%

CC(C)(NC(=O)c1nn(Cc2ccc(F)cc2)c2ccccc12)c1ccccc1 [Cumyl-FUBINACA]
potency of CB2 receptor activation compared to CP-55,940 (CB2 receptors): greater potency than CP-55,940
potency of CB1 receptor activation compared to CP-55,940 (CB1 receptors): greater potency than CP-55,940

CC(C)(NC(=O)c1nn(CCCCC(=O)O)c2ccccc12)c1ccccc1 [A07]
peak area in urine [1, 5]: 1.7E+04
peak area in urine [2, 6]: 8.4E+04
peak area in urine [2, 7]: 1.1E+05
peak area in urine [2, 8]: 5.2E+04
peak area in urine [2, 9]: 6.0E+04
peak area in urine [2, 10]: 4.2E+04
peak area in urine [2, 11]: 2.1E+04
Urine [Peak area] [3]: 1.8E+05
pHLM [Peak area] [4, 12]: 9.3E+06
pHLM [Peak area] [4, 13]: 2.9E+06

CC(C)(NC(=O)c1nn(CCCCCF)c2ccccc12)c1ccccc1 [5F-Cumyl-PINACA, 1-(5-fluoropentyl)-N-(2-phenylpropan-2-yl)-1H-indazole-3-carboxamide]
CB2 activity compared to CP-55,940 (CB2 receptor): less activities as compared to CP-55,940
detection of parent compound in urine [3]: not detected
CB1 activity compared to CP-55,940 (CB1 receptor): less activities as compared to CP-55,940
potency of CB2 receptor activation compared to CP-55,940 (CB2 receptors): greater potency than CP-55,940
potency of CB1 receptor activation compared to CP-55,940 (CB1 receptors): greater potency than CP-55,940

CCCCn1cc(C(=O)NC(C)(C)c2ccccc2)c2ccccc21 [Cumyl-BICA]
potency of CB2 receptor activation compared to CP-55,940 (CB2 receptors): greater potency than CP-55,940
potency of CB1 receptor activation compared to CP-55,940 (CB1 receptors): greater potency than CP-55,940

CCCCCn1cc(C(=O)NC(C)(C)c2ccccc2)c2ccccc21 [Cumyl-PICA, reference compound]
CB2 activity compared to CP-55,940 (CB2 receptor): less activities as compared to CP-55,940
CB1 activity compared to CP-55,940 (CB1 receptor): less activities as compared to CP-55,940
potency of CB2 receptor activation compared to CP-55,940 (CB2 receptors): greater potency than CP-55,940
potency of CB1 receptor activation compared to CP-55,940 (CB1 receptors): greater potency than CP-55,940

CC(C)(NC(=O)c1nn(CCCCCO)c2ccccc12)c1ccccc1 [A08]
peak area in urine ([1]; 3.2 h after 0.6 mg Cumyl-PINACA oral): 1.1E+06
peak area in urine [1, 5]: 4.5E+05
peak area in urine ([1]; 39 h after 0.6 mg Cumyl-PINACA oral): 2.9E+05
peak area in urine ([1]; 88.5 h after 0.6 mg Cumyl-PINACA oral): 2.6E+04
peak area in urine ([1]; 110.3 h after 0.6 mg Cumyl-PINACA oral): 6.1E+04
peak area in urine ([1]; 134 h after 0.6 mg Cumyl-PINACA oral): 2.7E+04
peak area in urine ([1]; 157.5 h after 0.6 mg Cumyl-PINACA oral): 1.5E+04
peak area in urine ([1]; 182.5 h after 0.6 mg Cumyl-PINACA oral): 1.3E+04
peak area in urine ([1]; 205.5 h after 0.6 mg Cumyl-PINACA oral): 1.1E+04
detectable in urine after self-administration ([2]; 0.6 mg Cumyl-PINACA oral): over 8 days
relative abundance in urine samples ([2]; 0.6 mg Cumyl-PINACA oral): most abundant metabolite in all analyzed urine samples
peak area in urine [2, 6]: 1.7E+07
peak area in urine [2, 7]: 4.1E+06
peak area in urine [2, 8]: 1.4E+06
peak area in urine [2, 9]: 1.5E+06
peak area in urine [2, 10]: 7.7E+05
peak area in urine [2, 11]: 5.7E+05
abundance in authentic urine sample [3]: high abundance
Urine [Peak area] [3]: 2.2E+05
pHLM [Peak area] [4, 12]: 6.0E+07
pHLM [Peak area] [4, 13]: 7.3E+07

CC(C)C(NC(=O)c1nn(CC2CCCCC2)c2ccccc12)C(N)=O (stereo not shown) [AB-[…]]
EC50 (CB1): 0.28 nM
Curve top (CB1): 94.8
Emax (CB1): 94.8%

CCCCCn1cc(C(=O)c2cccc3ccccc23)c2ccccc21 [JWH-018]
EC50 (CB1): 1.13 nM
Curve top (CB1): 97.6
Emax (CB1; control ligand CP-55,940): 97.4%

CCCCCn1c2ccccc2c2cc(C(=O)c3cccc4ccccc34)ccc21 [EG-018]
Curve top (CB1): 74.3
Emax (CB1; control ligand CP-55,940): 71.8%

CC(C)(NC(=O)c1cn(CC2CCCCC2)c2ccccc12)c1ccccc1 [Cumyl-CHMICA]
potency of CB2 receptor activation compared to CP-55,940 (CB2 receptors): greater potency than CP-55,940
potency of CB1 receptor activation compared to CP-55,940 (CB1 receptors): greater potency than CP-55,940

CC(C)(NC(=O)c1nn(CC2CCCCC2)c2ccccc12)c1ccccc1
potency of CB2 receptor activation compared to CP-55,940 (CB2 receptors): greater potency than CP-55,940
potency of CB1 receptor activation compared to CP-55,940 (CB1 receptors): greater potency than CP-55,940

CC(C)(NC(=O)c1nn(CCCCCF)c2c1=CC(O)C(O)C=2)c1ccccc1 (stereo not shown) [B01]
Urine [Peak area] [3]: 5.6E+04
pHLM [Peak area] [4, 12]: 7.0E+06

O=C(c1cccc2ccccc12)c1cn(CCCCCF)c2ccccc12 [AM-2201]
EC50 (CB1): 0.45 nM
Curve top (CB1): 103
Emax (CB1; control ligand CP-55,940): 101%

COC(=O)C(NC(=O)c1cn(CC2CCCCC2)c2ccccc12)C(C)(C)C (stereo not shown) [MDMB-CHMICA]
EC50 (CB1): 0.14 nM
Curve top (CB1): 94.8
Emax (CB1; control ligand CP-55,940): 94.6%

CCCCCn1nc(C(=O)NC(C(N)=O)C(C)C)c2ccccc21 (stereo not shown) [AB-PINACA]
EC50 (CB1): 1.74 nM
Curve top (CB1): 92.3
Emax (CB1; control ligand CP-55,940): 95.3%

CC(C)(NC(=O)c1cn(CCCCCF)c2ccccc12)c1ccccc1 [5F-Cumyl-PICA, reference compound]
CB2 activity compared to CP-55,940 (CB2 receptor): less activities as compared to CP-55,940
CB1 activity compared to CP-55,940 (CB1 receptor): less activities as compared to CP-55,940
potency of CB2 receptor activation compared to CP-55,940 (CB2 receptors): greater potency than CP-55,940
potency of CB1 receptor activation compared to CP-55,940 (CB1 receptors): greater potency than CP-55,940

CCCCn1nc(C(=O)NC(C)(C)c2ccccc2)c2ccccc21 [Cumyl-BINACA]
potency of CB2 receptor activation compared to CP-55,940 (CB2 receptors): greater potency than CP-55,940
potency of CB1 receptor activation compared to CP-55,940 (CB1 receptors): greater potency than CP-55,940

CC(C)C(NC(=O)c1nn(Cc2ccc(F)cc2)c2ccccc12)C(N)=O (stereo not shown) [AB-FUBINACA]
EC50 (CB1): 0.89 nM
Curve top (CB1): 97.4
Emax (CB1; control ligand CP-55,940): 97.8%
